Legend:
[1] = test system: Mycobacterium tuberculosis H37Rv; test: Inhibition of Mycobacterium tuberculosis H37Rv chorismate mutase expressed in Escherichia coli assessed as inhibition of prephenate formation at 50 uM after 1 to 5 mins by spectrophotometry
[2] = (§1) Inhibition of Mycobacterium tuberculosis H37Rv chorismate mutase expressed in Escherichia coli assessed as inhibition of prephenate formation after 1 to 5 mins by spectrophotometry
[3] = test system: Mycobacterium tuberculosis H37Rv; test: as §1

SMILES | inhibition [1] [%] | IC50 [2] [µM] | inhibition [3]
CCCc1nn(C)c2c(=O)n(-c3ccccc3)nnc12 | 10 |  | 
CCCc1nn(C)c2c(=O)n(-c3ccc4ccccc4c3)nnc12 | 61 | 15.1 | Dose-dependent effect
COc1cc(CCNc2c([N+](=O)[O-])cc(C(=O)O)cc2S(N)(=O)=O)cc(OC)c1 |  | < 10 | 
CCCc1nn(C)c2c(=O)n(-c3ccc(F)cc3)nnc12 | 24 |  | 
O=c1c2ccccc2nnn1-c1ccccc1 | 12 |  | 
O=c1c2ccccc2nnn1-c1ccc2ccccc2c1 | 40 |  | 
O=c1c2c3c(sc2nnn1-c1ccc(F)cc1)CCCC3 | 25 |  | 
CCCc1nn(C)c2c(=O)n(-c3cccc(Cl)c3)nnc12 | 30 |  | 
O=c1c2c3c(sc2nnn1-c1ccc2ccccc2c1)CCCC3 | 37 |  | 
